Data as given in the NIST ThermoML archive (doi:10.1016/j.jct.2014.07.026).
Numbers after ± are expanded uncertainties.

Assay: mn = molality of the nth substance listed, in mol/kg
Details: 100 kPa, Liquid; for mass density: Vibrating tube method; for speed of sound: Frequency=2 MHz, Linear variable-path acoustic interferometer

CC(C)C[C@H](N)C(=O)[O-].CCCCn1cc[n+](C)c1 [1-butyl-3-methylimidazolium L-leucinate] + O
mass density (293.15 K, m1 = 0.03697): 999.215 ± 0.11 kg/m3
mass density (293.15 K, m1 = 0.05641): 999.729 ± 0.11 kg/m3
mass density (293.15 K, m1 = 0.07287): 1000.17 ± 0.11 kg/m3
mass density (293.15 K, m1 = 0.09146): 1000.67 ± 0.11 kg/m3
mass density (293.15 K, m1 = 0.1132): 1001.23 ± 0.11 kg/m3
mass density (293.15 K, m1 = 0.1544): 1002.32 ± 0.11 kg/m3
mass density (293.15 K, m1 = 0.1911): 1003.25 ± 0.11 kg/m3
mass density (293.15 K, m1 = 0.2335): 1004.32 ± 0.11 kg/m3
mass density (293.15 K, m1 = 0.2827): 1005.52 ± 0.11 kg/m3
mass density (293.15 K, m1 = 0.3424): 1007.01 ± 0.11 kg/m3
mass density (293.15 K, m1 = 0.3957): 1008.25 ± 0.11 kg/m3
mass density (293.15 K, m1 = 0.4527): 1009.6 ± 0.11 kg/m3
mass density (293.15 K, m1 = 0.5127): 1010.96 ± 0.11 kg/m3
speed of sound (298.15 K, m1 = 0.04773): 1507.7 ± 2.5 m/s
speed of sound (298.15 K, m1 = 0.1038): 1519.1 ± 2.5 m/s
speed of sound (298.15 K, m1 = 0.1495): 1528.5 ± 2.5 m/s
speed of sound (298.15 K, m1 = 0.1994): 1538.3 ± 2.5 m/s
speed of sound (298.15 K, m1 = 0.2447): 1547.3 ± 2.5 m/s
speed of sound (298.15 K, m1 = 0.2957): 1557.1 ± 2.5 m/s
speed of sound (298.15 K, m1 = 0.3491): 1567.5 ± 2.5 m/s
speed of sound (298.15 K, m1 = 0.4035): 1577.8 ± 2.5 m/s
speed of sound (298.15 K, m1 = 0.4605): 1588.7 ± 2.6 m/s
speed of sound (298.15 K, m1 = 0.5164): 1599.4 ± 2.6 m/s
mass density (298.15 K, m1 = 0.03697): 998.03 ± 0.11 kg/m3
mass density (298.15 K, m1 = 0.05641): 998.525 ± 0.11 kg/m3
mass density (298.15 K, m1 = 0.07287): 998.954 ± 0.11 kg/m3
mass density (298.15 K, m1 = 0.09146): 999.435 ± 0.11 kg/m3
mass density (298.15 K, m1 = 0.1132): 999.978 ± 0.11 kg/m3
mass density (298.15 K, m1 = 0.1544): 1001.01 ± 0.11 kg/m3
mass density (298.15 K, m1 = 0.1911): 1001.9 ± 0.11 kg/m3
mass density (298.15 K, m1 = 0.2335): 1002.93 ± 0.11 kg/m3
mass density (298.15 K, m1 = 0.2827): 1004.13 ± 0.11 kg/m3
mass density (298.15 K, m1 = 0.3424): 1005.51 ± 0.11 kg/m3
mass density (298.15 K, m1 = 0.3957): 1006.7 ± 0.11 kg/m3
mass density (298.15 K, m1 = 0.4527): 1008.01 ± 0.11 kg/m3
mass density (298.15 K, m1 = 0.5127): 1009.37 ± 0.11 kg/m3
mass density (303.15 K, m1 = 0.03697): 996.605 ± 0.11 kg/m3
mass density (303.15 K, m1 = 0.05641): 997.088 ± 0.11 kg/m3
mass density (303.15 K, m1 = 0.07287): 997.496 ± 0.11 kg/m3
mass density (303.15 K, m1 = 0.09146): 997.966 ± 0.11 kg/m3
mass density (303.15 K, m1 = 0.1132): 998.492 ± 0.11 kg/m3
mass density (303.15 K, m1 = 0.1544): 999.496 ± 0.11 kg/m3
mass density (303.15 K, m1 = 0.1911): 1000.35 ± 0.11 kg/m3
mass density (303.15 K, m1 = 0.2335): 1001.35 ± 0.11 kg/m3
mass density (303.15 K, m1 = 0.2827): 1002.52 ± 0.11 kg/m3
mass density (303.15 K, m1 = 0.3424): 1003.84 ± 0.11 kg/m3
mass density (303.15 K, m1 = 0.3957): 1005.02 ± 0.11 kg/m3
mass density (303.15 K, m1 = 0.4527): 1006.25 ± 0.11 kg/m3
mass density (303.15 K, m1 = 0.5127): 1007.54 ± 0.11 kg/m3
mass density (308.15 K, m1 = 0.03562): 994.921 ± 0.11 kg/m3
mass density (308.15 K, m1 = 0.05661): 995.428 ± 0.11 kg/m3
mass density (308.15 K, m1 = 0.07558): 995.879 ± 0.11 kg/m3
mass density (308.15 K, m1 = 0.0961): 996.37 ± 0.11 kg/m3
mass density (308.15 K, m1 = 0.114): 996.791 ± 0.11 kg/m3
mass density (308.15 K, m1 = 0.1577): 997.799 ± 0.11 kg/m3
mass density (308.15 K, m1 = 0.1946): 998.637 ± 0.11 kg/m3
mass density (308.15 K, m1 = 0.2469): 999.798 ± 0.11 kg/m3
mass density (308.15 K, m1 = 0.2813): 1000.57 ± 0.11 kg/m3
mass density (308.15 K, m1 = 0.345): 1001.95 ± 0.11 kg/m3
mass density (308.15 K, m1 = 0.3992): 1003.13 ± 0.11 kg/m3
mass density (308.15 K, m1 = 0.4555): 1004.31 ± 0.11 kg/m3
mass density (308.15 K, m1 = 0.5127): 1005.43 ± 0.11 kg/m3
mass density (313.15 K, m1 = 0.03562): 993.087 ± 0.11 kg/m3
mass density (313.15 K, m1 = 0.05661): 993.589 ± 0.11 kg/m3
mass density (313.15 K, m1 = 0.07558): 994.031 ± 0.11 kg/m3
mass density (313.15 K, m1 = 0.0961): 994.501 ± 0.11 kg/m3
mass density (313.15 K, m1 = 0.114): 994.919 ± 0.11 kg/m3
mass density (313.15 K, m1 = 0.1577): 995.899 ± 0.11 kg/m3
mass density (313.15 K, m1 = 0.1946): 996.701 ± 0.11 kg/m3
mass density (313.15 K, m1 = 0.2469): 997.848 ± 0.11 kg/m3
mass density (313.15 K, m1 = 0.2813): 998.573 ± 0.11 kg/m3
mass density (313.15 K, m1 = 0.345): 999.913 ± 0.11 kg/m3
mass density (313.15 K, m1 = 0.3992): 1001.03 ± 0.11 kg/m3
mass density (313.15 K, m1 = 0.4555): 1002.11 ± 0.11 kg/m3
mass density (313.15 K, m1 = 0.5127): 1003.22 ± 0.11 kg/m3
